From EPA's ToxValDB 9.5 (doi:10.2903/j.efsa.2014.3880) come the findings set out here.

One may read the NOAEL as the highest dose or exposure tested at which no adverse effect was seen.

Several values for one entry are separate records, joined by “and”; a condition that tells them apart may be missing. Identical values can stand only once. Bounds are passed on as bounds.

One data set relates to Anas platyrhynchos. The following applies: short-term; oral; feed; food consumption.
Another data set has as its system Apis mellifera. Particulars: acute, mortality.
A further data set relates to Bibionidae. The following applies: chronic/long-term; duration: 23 days; reproduction.
The next data set concerns Daphnia magna. The following applies: chronic/long-term; duration: 21 days; reproduction.
The test system of another data set is Folsomia candida. Particulars: chronic/long-term.
The subject of the next data set is Oncorhynchus mykiss. The following applies: chronic/long-term; duration: 65 days; mortality.
A further data set deals with Rattus norvegicus. Particulars: for NOAEL: chronic.
A further data set concerns Typhlodromus pyri. The experiment in a line: LR50; higher = less toxic. Particulars: not reported; reproduction.

`c1ccc2[nH]c(-c3cscn3)nc2c1` [Thiabendazole]: the LC50 in the data set with Anas platyrhynchos is > 1290 mg/kg; in the data set with Tagia sp. (acute, duration: 14 days, mortality), > 224 mg/kg. The LD50 in the data set with Apis mellifera (dermal) was > 34 µg/piece; with Apis mellifera (oral, unspecified), > 200 µg/piece; in the data set with Colinus virginianus (acute, oral), > 2250 mg/kg; with Rattus norvegicus (acute), 3100 mg/kg. Moreover, the NOEC was 2 mg/L and 3 mg/kg in the data set with Bibionidae; 0.041 mg/L in the data set with Daphnia magna; 25 mg/kg with Folsomia candida; 0.012 mg/L in the data set with Oncorhynchus mykiss; 2.1 mg/kg with Tagia sp. (chronic/long-term, duration: 8 weeks). In addition, the NOAEL in the data set with Colinus virginianus (reproduction developmental) came out at 34.9 mg/kg-day; with Rattus norvegicus it was 10 mg/kg-day; with Rattus norvegicus (duration: 2 years, histopathology: neoplastic), 10 mg/kg-day. Besides, the NOEL in the data set on Rattus norvegicus (reproduction developmental, reproduction) worked out at 10 mg/kg-day. In addition, the LR50 in the data set with Typhlodromus pyri was > 1800 g/ha.
